Measurements as given in US6900194B1, “Use of substituted 4-biarylbutyric and 5-biarylpentanoic acid derivatives as matrix metalloprotease inhibitors for the treatment of respiratory diseases” (Bayer Aktiengesellschaft, priority 1998, dated 2005).

Columns and labels:
[1] = target: T1, MMP-12 (Macrophage Elastase) (Homo sapiens, UniProt P39900); test: P218 quenched fluorescence assay, MMP-12; format: biochemical; settings: table 3
T1 construct: made in house; host or cells: E. coli BL21 (DE3)
From the text: P218 Quenched Fluorescence Assay for MMP Inhibition:
This assay is adapted from the one described by Knight et al., FEBS Letters, 296, 263-266 (1992) for MMP-3 and a related substrate. The rate of hydrolysis of the synthetic substrate H-MCA-Pro-Lys-Pro-Leu-Ala-Leu-DPA-Ala-Arg-NH2 (P218) by the respective MMPs is monitored fluorometrically, using an excitation wavelength of 340 nm and an emission wavelength of 395 nm, in the presence or absence of the test compounds. The substrate is made up initially in 100% DMSO to a concentration of 1×10^−2 M, then diluted in assay buffer to a final concentration of 20 μM. Test compounds (10 mM in DMSO) are diluted in assay buffer at an initial concentration of 0.3-1000 nM. These are diluted to a final concentration in the assay from 0.03 nM to 100 nM. The reaction is initiated by the addition of substrate at a final concentration of 20 μM. The total assay volume in a 96 well microtitre plate is 150 μl, Cleavage of the substrate between the Leu-Ala residues allows the fluorescence of the MCA group to be detected on a fluorometer (Cytofluor II) following excitation at 340 nm and emission at 395 nm. Change in fluorescence is continually monitored for a 40 min period.
The Ki's are calculated using the method described by Williams and Morrison, Methods in Enzymology, 63, 437-467 (1979) to measure Ki apparent for tight binding inhibitors, and is summarised as follows: [I]0/(1−vi/v0)=Ki apparent ×vi/v0+[E]0 [I]0 and [E]0 are inhibitor and enzyme concentrations, and vi/v0 are reaction velocities with/without inhibitor. [I]0 is equal to IC50 when vi is half v0, so that: IC50=0.5×[E]0+Ki apparent
IC50's are determined at each enzyme concentration using Xlfit software. Ki apparent is then determined graphically from the plot of IC50 versus MMP concentration, using the intercepts to estimate Ki apparent. Thus, intercept values at IC50=0 and [E]0=0 are equal to −2×Ki apparent and Ki apparent, respectively. IC50 values are calculated using % inhibition values at each enzyme concentration, ensuring data is taken from the linear part of the reaction rate curves. The Ki can then be calculated from the equation: Ki=Ki apparent/[…] where S=substrate concentration and Km=dissociation constant.
The assay conditions are modified as follows for each of the MMPs used:
MMP-12 (Macrophage Elastase)
[…] is isolated according to the following procedure: Human GenePool cDNA libraries from human lung, spleen, and brain were obtained from Invitrogen (Groningen, The Netherlands). HPLC-purified oligonucleotides were purchased from BioTez (Berlin, Germany), E. coli strain DH5α from Life Technologies (Heidelberg, Germany), strain BL21(DE3) from Novagen (Heidelberg, Germany). Pfu DNA-Polymerase and pBlueScriptII-KS(+) were from Stratagene (Heidelberg, Germany). DNA plasmid and DANN gel isolation kits were purchased from Qiagen (Hilden, Germany). All restriction enzymes and DNA modifying enzymes were ordered from New England Biolabs (Schwalbach, Germany). HiTrapQ (5 ml) was from Pharmacia Biotech (Freiburg, Germany). Vydac C4-RP HPLC columns (214TP54: 300 Å, 5 μm, 4.6×250 mm; 214TP1022: 300 Å, 10 μm, 22×250 mm) were from Promochem (Wesel, Germany). Fluorogenic substrate P218 was purchased from Polypeptide Laboratories (Wolfenbüttel, Germany). Ultrapure urea was purchased from Schwarz-Mann (Cleveland, Ohio). Ready-to-use NuPAGE 10% Bis-Tris Polyacrylamide SDS-PAGE gels and NuPAGE 20×MOPS running buffer were obtained from Novex (Frankfurt/Main, Germany) 10% AMPA and all other chemicals were from Sigma (Deisenhofen, Germany). […]

[2] = system: Human alveolar macrophages; settings: read-out: IC50, inhibition of MCP-1-induced trafficking of human alveolar macrophages across artificial basement membrane; Matrigel; human MCP-1 5 ng/ml; 48-98 h; + or − lipopolysaccharide
Protocol: (§1) In vitro Functional Tests • 1. Human alveolar macrophages • Human alveolar macrophages were obtained by bronchoscopy of healthy smoking volunteers. Cells were spun and resuspended at 2×10^6/ml. Trafficking of alveolar macrophages (+or −lipopolysaccharide 2.5 μg.ml) across an artificial basement membrane (Matrigel) was induced by human MCP-1 (5 ng/ml) over a 48-98 h period. […] Murine peritoneal macrophages • Murine macrophages were obtained from mice 5 days after an intraperitoneal injection of thioglycollate. Cells were spun and resuspended at 2×10^6/ml. Trafficking of peritoneal macrophages across an artificial basement membrane (Matrigel) was induced by murine MCP-1 (5 ng/ml) over a 48-98 h period. […] LPS Induced TNFα Production in Mice

[3] = system: Murine peritoneal macrophages; settings: read-out: IC50, inhibition of trafficking of murine peritoneal macrophages across artificial basement membrane; Matrigel; murine MCP-1 5 ng/ml; 48-98 h
Protocol: as §1

T1 sequence (P39900 106-470): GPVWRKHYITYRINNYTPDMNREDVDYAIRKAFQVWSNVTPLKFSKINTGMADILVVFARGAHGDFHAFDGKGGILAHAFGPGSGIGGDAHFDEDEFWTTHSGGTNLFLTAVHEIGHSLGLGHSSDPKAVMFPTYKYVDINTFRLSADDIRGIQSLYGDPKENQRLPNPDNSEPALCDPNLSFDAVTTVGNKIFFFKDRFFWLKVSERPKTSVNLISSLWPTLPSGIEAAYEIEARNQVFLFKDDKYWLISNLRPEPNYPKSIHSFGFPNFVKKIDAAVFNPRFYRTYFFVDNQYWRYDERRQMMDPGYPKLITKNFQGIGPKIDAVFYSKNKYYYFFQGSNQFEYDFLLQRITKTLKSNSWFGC

Row | IC50 [1] [nM] | Structure (SMILES) | IC50 [2] [nM] | IC50 [3] [nM]
1 | 1.6 | O=C(CC(CCN1C(=O)c2ccccc2C1=O)C(=O)O)c1ccc(-c2ccc(OCc3ccccc3)cc2)cc1 (stereo not shown) [C-XXII] | – | –
2 | 1 | O=C(O)[C@H]1[C@H](CN2C(=O)c3cc4ccccc4cc3C2=O)CC[C@@H]1C(=O)c1ccc(-c2ccc(Cl)cc2)cc1 (racemic) [C-XVIII] | – | –
3 | 4.5 | O=C(O)[C@H]1[C@H](CN2C(=O)c3cc(Cl)c([N+](=O)[O-])cc3C2=O)CC[C@@H]1C(=O)c1ccc(-c2ccc(Cl)cc2)cc1 (racemic) [C-XXX] | – | –

The next lines start with the compound.

Row | Structure (SMILES) | IC50 [1] [nM] | IC50 [2] [nM] | IC50 [3] [nM]
4 | CCCCCOc1ccc(-c2ccc(C(=O)CC(CCN3C(=O)c4ccccc4C3=O)C(=O)O)cc2)cc1 (stereo not shown) [C-III] | 2.8 | – | –
5 | CCCOc1ccc2c(c1)C(=O)N(CCC(CC(=O)c1ccc(-c3ccc(Cl)cc3)cc1)C(=O)O)C2=O (stereo not shown) [C-V] | 1.7 | – | –
6 | O=C(c1ccc(-c2ccc(Cl)cc2)cc1)C1CCC(CN2C(=O)c3ccccc3C2=O)C1C(=O)O (stereo not drawn) [(1α,2β,5β)-2-{[4′-chloro(1,1′-biphenyl)-4-yl]carbonyl}-5-[(1,3-dihydro-1,3-dioxo-2H-isoindol-2-yl)methyl]-cyclopentane carboxylic acid] | – | ≤ 1000 | ≤ 1000
